{"source": "patent US9878070B2", "about": "“Malleable implants including an oxysterol and methods of use” (Warsaw Orthopedic, Inc., priority 2015, dated 2018)", "key": {"[1]": {"test_system": "multipotent mesenchymal cells such as M2-10B4 (M2) marrow stromal cells and C3H10T1/2 embryonic fibroblasts", "conditions": "cited from earlier work"}, "[2]": {"test_system": "rat two-level spine model", "assay": "Posterolateral spinal fusion in a rat two-level spine model (radiographs, manual palpation)", "format": "in vivo", "conditions": "collagen/ceramic matrix wetted with sterile water, bilateral in posterolateral space, 4-week and 8-week timepoints", "method": "FIG. 6 illustrates uses of a formulation of malleable implants having 20 mg of Oxy133 on each side of the implant, in accordance with the malleable implants described herein. […] A dry composition of a matrix containing Oxy133, collagen and ceramic as described herein was prepared and wetted with sterile water to be implanted in rat spines as shown in FIG. 6. The wetted matrix was cut in half with a razor blade to yield two halves. The two implants were molded into cylindrical shapes prior to insertion and were positioned bilaterally in the posterolateral space of each test subject. Each implant contained 20 mg Oxy133. Radiographs were taken roughly 10 minutes after the procedure, 4 weeks after the procedure, and 8 weeks after the procedure. […] Fusion was tested at 8-week sacrifice by manual palpation. […] A dry composition of a matrix containing Oxy133, collagen and ceramic as described herein was prepared and wetted with sterile water to be implanted in rat spines as shown in FIG. 6. The wetted matrix was cut in half with a razor blade to yield two halves. The two implants were molded into cylindrical shapes prior to insertion and were positioned bilaterally in the posterolateral space of each test subject. Each implant contained 125 mg Oxy133. Radiographs were taken roughly 10 minutes after the procedure, 4 weeks after the procedure, and 8 weeks after the procedure. […]"}}, "note": "“Also recorded” adds a separate entry of the source.", "data": [{"smiles": "CC(C)CC[C@H](O)[C@@H](C)[C@H]1CC[C@H]2[C@@H]3CC=C4C[C@@H](O)CC[C@]4(C)[C@H]3CC[C@]12C", "note": "[22(S)-hydroxycholesterol]", "values": [{"measurement": "osteogenic differentiation", "setting": "[1]", "value": "induce osteogenic differentiation"}]}, {"smiles": "CC(C)CC[C@@H](O)[C@@H](C)[C@H]1CC[C@H]2[C@@H]3CC=C4C[C@@H](O)CC[C@]4(C)[C@H]3CC[C@]12C", "note": "[22(R)-hydroxycholesterol]", "values": [{"measurement": "osteogenic differentiation", "setting": "[1]", "value": "induce osteogenic differentiation"}]}, {"smiles": "CC(C)CCC[C@](C)(O)[C@H]1CC[C@H]2[C@@H]3CC=C4C[C@@H](O)CC[C@]4(C)[C@H]3CC[C@@]21C", "note": "[20(S)-hydroxycholesterol]", "values": [{"measurement": "osteogenic differentiation", "setting": "[1]", "value": "induce osteogenic differentiation"}]}, {"smiles": "CCCCCC[C@](C)(O)[C@H]1CC[C@H]2[C@@H]3C[C@H](O)[C@H]4C[C@@H](O)CC[C@]4(C)[C@H]3CC[C@@]21C", "note": "[Oxy133, (3S,5S,6S,8R,9S,10R,13S,14S,17S) 17-((S)-2-hydroxyoctan-2-yl)-10,13-dimethylhexadecahydro-1H-cyclopenta[a]phenanthrene-3,6-diol]", "values": [{"measurement": "bridging bone across the transverse processes of L3-L5 / bone growth (radiographs)", "setting": "[2]; 20 mg Oxy133 per implant", "value": "promoted bridging bone; also recorded: Bone growth in rat test subjects can be seen"}, {"measurement": "bridging bone across the transverse processes of L3-L5 / bone growth (radiographs)", "setting": "[2]; 125 mg Oxy133 per implant", "value": "promoted bridging bone; also recorded: Bone growth in rat test subjects can be seen"}]}]}
